The subject of test [1] is synthesis of LTB4 in human whole blood. Description: human whole blood LTB4 production inhibition assay. The format is cell-based. The note with it: calcimycin stimulated, read-out: hWB LTB4 IC50. Summed up: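 Heparinized human whole blood preincubated with compound 15 min at 37 °C, then stimulated with calcimycin (20 μM final) for 30 min at 37 °C. Plasma LTB4 measured after low-speed centrifugation by antibody-based homogeneous time-resolved fluorescence.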

Test [2] concerns the target T1, recombinant human FLAP protein (Homo sapiens, UniProt P20292).
T1 construct: made in house; host or cells: Sf9 insect cells (100,000xg membrane fraction used)
T1 sequence (P20292 1-161): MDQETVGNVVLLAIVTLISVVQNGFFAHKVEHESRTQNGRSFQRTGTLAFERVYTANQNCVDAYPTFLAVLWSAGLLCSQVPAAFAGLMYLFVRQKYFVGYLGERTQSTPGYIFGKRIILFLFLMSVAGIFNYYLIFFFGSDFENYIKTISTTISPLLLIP
In words: FLAP binding assay (Scintillation Proximity Assay, displacement of [125I]L-691,831). The note with it: read-out: FLAP SPA IC50. In short, it runs like this:
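Scintillation proximity displacement of [125I]L-691,831 (0.08 nM) from membranes of sf9 cells expressing recombinant human FLAP (5 μg/well) on WGA SPA beads, pH 7.5 Tris buffer. Plates shaken 2 h before counting. Non-specific binding defined with 10 μM unlabelled L-691,831.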

Structures are written as SMILES.

By IC50 is commonly meant the point on the concentration scale where inhibition reaches its midpoint. With `CC(C)(O)Cn1cc(-c2nc(C(C)(C)c3ccc(-c4cnc(N)nc4)nc3)no2)cn1` [Example 88, 1-[4-(3-{2-[6-(2-aminopyrimidin-5-yl)pyridin-3-yl]propan-2-yl}-1,2,4-oxadiazol-5-yl)-1H-pyrazol-1-yl]-2-methylpropan-2-ol], the results for the IC50 in test [1] and in test [2] were 1500 nM and 370 nM, respectively.
In the same order, the values of `COCCn1cc(-c2nc(C(C)(C)c3ccc(-c4cnc(N)nc4)nc3)no2)cn1` [Example 89, 5-[5-(2-{5-[1-(2-methoxyethyl)-1H-pyrazol-4-yl]-1,2,4-oxadiazol-3-yl}propan-2-yl)pyridin-2-yl]pyrimidin-2-amine] are 880 nM and 230 nM.
The corresponding values for `COC(=O)C(C)(C)n1cc(-c2nc(C(C)(C)c3ccc(-c4cnc(N)nc4)nc3)no2)cn1` [Example 90, methyl 2-[4-(3-{2-[6-(2-aminopyrimidin-5-yl)pyridin-3-yl]propan-2-yl}-1,2,4-oxadiazol-5-yl)-1H-pyrazol-1-yl]-2-methylpropanoate] are 950 nM and 140 nM.
The corresponding values for `COCCOCCn1cc(-c2nc(C(C)(C)c3ccc(-c4cnc(N)nc4)nc3)no2)cn1` [Example 91, 5-{5-[2-(5-{1-[2-(2-methoxyethoxy)ethyl]-1H-pyrazol-4-yl}-1,2,4-oxadiazol-3-yl)propan-2-yl]pyridin-2-yl}pyrimidin-2-amine] are 1500 nM and 300 nM.
Consider `CC(C)Nc1cnc(-c2nc([C@@](C)(c3ccc(-c4cnc(N)nc4)nc3)C(C)C)no2)cn1` [Example 92, 5-[5-{(R)-1-[5-(5-Isopropylamino-pyrazin-2-yl)-[1,2,4]oxadiazol-3-yl]-1,2-dimethyl-propyl}-pridin-2-yl)-pyrimidin-2-ylamine], for which the IC50 was 92 nM in test [1] and 15 nM in test [2].
In the same order, the values of `CC(C)Nc1cnc(-c2nc([C@](C)(c3ccc(-c4cnc(N)nc4)nc3)C(C)C)no2)cn1` [Example 93, 5-(5-{(S)-1-[5-(5-Isopropylamino-pyrazin-2-yl)-[1,2,4]oxadiazol-3-yl]-1,2-dimethyl-propyl}-pyridin-2-yl)-pyrimidin-2-ylamine] are 28 nM and 21 nM.
For `CC(C)[C@](C)(c1ccc(-c2cnc(N)nc2)nc1)c1noc(-c2cnc(NC(C)(C)CO)cn2)n1` [Example 94, 2-[5-(3-{(R)-1-[6-(2-Amino-pyrimidin-5-yl)-pyridin-3-yl]-1,2-dimethyl-propyl}-[1,2,4]oxadiazol-5-yl)-pyrazin-2-ylamino]-2-methyl-propan-1-ol], the results for the half-maximal inhibitory concentration (IC50) in test [1] and in test [2] were 74 nM and 26 nM, respectively.
With `CC(C)[C@@](C)(c1ccc(-c2cnc(N)nc2)nc1)c1noc(-c2cnc(NC(C)(C)CO)cn2)n1` [Example 95, 2-[5-(3-{(S)-1-[6-(2-Amino-pyrimidin-5-yl)-pyridin-3-yl]-1,2-dimethyl-propyl}-[1,2,4]oxadiazol-5-yl)-pyrazin-2-ylamino]-2-methyl-propan-1-ol], the results for the half-inhibitory concentration (IC50) in test [1] and in test [2] were 210 nM and 92 nM, respectively.
Turning to `CC(C)[C@](C)(c1ccc(-c2cnc(N)nc2)nc1)c1noc(-c2cnn(C3CCS(=O)(=O)C3)c2)n1` (stereo partly drawn) [Example 96, 5-[5-((R)-1-{5-[1-(1,1-Dioxo-tetrahydro-116-thiophen-3-yl)-1H-pyrazol-4-yl]-[1,2,4]oxadiazol-3-yl}-1,2-dimethyl-propyl)-pyridin-2-yl]-pyrimidin-2-ylamine], the IC50 stood at 240 nM in test [1] and 9.9 nM in test [2].
In the same order, the values of `CC(C)[C@](C)(c1ccc(-c2cnc(N)nc2)nc1)c1noc(-c2cnn(CCN(C)C)c2)n1` [Example 97, 5-[5-((R)-1-{5-[1-(2-Dimethylamino-ethyl)-1H-pyrazol-4-yl]-[1,2,4]oxadiazol-3-yl}-1,2-dimethyl-propyl)-pyridin-2-yl]-pyrimidin-2-ylamine] are 30 nM and 7.9 nM.
Regarding `CC(c1ccc(-c2ccc(N)nc2)nc1)(c1noc(-c2cn[nH]c2)n1)C1CC1` (stereo not drawn) [Example 98, 5-{1-Cyclopropyl-1-[5-(1H-pyrazol-4-yl)-[1,2,4]oxadiazol-3-yl]-ethyl}-[2,3′]bipyridinyl-6′-ylamine], the figures for the half-inhibitory concentration (IC50) in test [1] and in test [2] were 500 nM and 26 nM, respectively.
In the same order, the values of `CN(C)CCn1cc(-c2nc([C@@](C)(c3ccc(-c4cnc(N)nc4)nc3)C3CC3)no2)cn1` [Example 99, 5-[5-((R)-1-Cyclopropyl-1-{5-[1-(2-dimethylamino-ethyl)-1H-pyrazol-4-yl]-[1,2,4]oxadiazol-3-yl}-ethyl)-pyridin-2-yl]-pyrimidin-2-ylamine] are 150 nM and 32 nM.
For the molecule `CC(C)(O)Cn1cc(-c2nc([C@@](C)(c3ccc(-c4cnc(N)cn4)nc3)C3CC3)no2)cn1` [Example 100, 1-[4-(3-{(R)-1-[6-(5-Amino-pyrazin-2-yl)-pyridin-3-yl]-1-cyclopropyl-ethyl}-[1,2,4]oxadiazol-5-yl)-pyrazol-1-yl]-2-methyl-propan-2-ol], the half-inhibitory concentration (IC50) was 210 nM in test [1] and 53 nM in test [2].
Take `CC(C)(O)Cn1cc(-c2nc([C@](C)(c3ccc(-c4cnc(N)cn4)nc3)C3CC3)no2)cn1` [Example 101, 1-[4-(3-{(S)-1-[6-(5-Amino-pyrazin-2-yl)-pyridin-3-yl]-1-cyclopropyl-ethyl}-[1,2,4]oxadiazol-5-yl)-pyrazol-1-yl]-2-methyl-propan-2-ol]: the half-inhibitory concentration (IC50) in test [1] stood at 990 nM; in test [2], 280 nM.
In the same order, the values of `CC(C)(C)NC(=O)Cn1cc(-c2nc([C@@](C)(c3ccc(-c4cnc(N)nc4)nc3)C3CC3)no2)cn1` [Example 102, 2-[4-(3-{(R)-1-[6-(2-Amino-pyrimidin-5-yl)-pyridin-3-yl]-1-cyclopropyl-ethyl}-[1,2,4]oxadiazol-5-yl)-pyrazol-1-yl]-N-tert-butyl-acetamide] are 89 nM and 13 nM.
In the case of `COCCn1cc(-c2nc([C@@](C)(c3ccc(-c4cnc(N)cn4)nc3)C(C)C)no2)cn1` [Example 104, 5-[5-((R)-1-{5-[1-(2-Methoxy-ethyl)-1H-pyrazol-4-yl]-[1,2,4]oxadiazol-3-yl}-1,2-dimethyl-propyl)-pyridin-2-yl]-pyrazin-2-ylamine], the IC50 in test [1] is 17 nM; in test [2], 5.7 nM.
In the same order, the values of `CC(C)[C@](C)(c1ccc(-c2cnc(N)cn2)nc1)c1noc(-c2cnc(N3CCNCC3)cn2)n1` [Example 105, 5-(5-{(R)-1,2-Dimethyl-1-[5-(3,4,5,6-tetrahydro-2H-[1,2′]bipyrazinyl-5′-yl)-[1,2,4]oxadiazol-3-yl]-propyl}-pyridin-2-yl)-pyrazin-2-ylamine] are 450 nM and 7.8 nM.
In the same order, the values of `CN(C(=O)Cn1cc(-c2nc([C@@](C)(c3ccc(-c4cnc(N)nc4)nc3)C3CC3)no2)cn1)C(C)(C)C` [Example 106, 2-[4-(3-{(R)-1-[6-(2-Amino-pyrimidin-5-yl)-pyridin-3-yl]-1-cyclopropyl-ethyl}-[1,2,4]oxadiazol-5-yl)-pyrazol-1-yl]-N-tert-butyl-N-methyl-acetamide] are 30 nM and 10 nM.
With `CO[C@@H]1CCN(C(=O)Cn2cc(-c3nc([C@@](C)(c4ccc(-c5cnc(N)nc5)nc4)C4CC4)no3)cn2)C1` [Example 107, 2-[4-(3-{(R)-1-[6-(2-Amino-pyrimidin-5-yl)-pyridin-3-yl]-1-cyclopropyl-ethyl}-[1,2,4]oxadiazol-5-yl)-pyrazol-1-yl]-1-((R)-3-methoxy-pyrrolidin-1-yl)-ethanone], the concentration for half-maximal inhibition (IC50) in test [1] was found to be 220 nM; in test [2], 72 nM.
Consider `COCCn1cc(-c2nc([C@](C)(c3ccc(-c4ccc(N)nc4)nc3)C3CC3)no2)cn1` [Example 108, 5-((S)-1-Cyclopropyl-1-{5-[1-(2-methoxy-ethyl)-1H-pyrazol-4-yl]-[1,2,4]oxadiazol-3-yl}-ethyl)-[2,3′]bipyridinyl-6′-ylamine], for which the IC50 in test [1] stood at 2300 nM; in test [2], 360 nM.
The corresponding values for `CC(C)(O)Cn1cc(-c2nc([C@](C)(c3ccc(-c4ccc(N)nc4)nc3)C3CC3)no2)cn1` [Example 109, 1-(4-{3-[(S)-1-(6′-Amino-[2,3′]bipyridinyl-5-yl)-1-cyclopropyl-ethyl]-[1,2,4]oxadiazol-5-yl}-pyrazol-1-yl)-2-methyl-propan-2-ol] are 1100 nM and 350 nM.
For `CC(C)[C@](C)(c1ccc(-c2cnc(N)cn2)nc1)c1noc(-c2cnn(CC(C)(C)O)c2)n1` [Example 110, 1-[4-(3-{(R)-1-[6-(5-Amino-pyrazin-2-yl)-pyridin-3-yl]-1,2-dimethyl-propyl}-[1,2,4]oxadiazol-5-yl)-pyrazol-1-yl]-2-methyl-propan-2-ol], the IC50 is 31 nM in test [1] and 5.9 nM in test [2].
`CC(C)[C@](C)(c1ccc(-c2cnc(N)cn2)nc1)c1noc(-c2cnn(CC(=O)N(C)C)c2)n1` [Example 112, 2-[4-(3-{(R)-[6-(5-Amino-pyrazin-2-yl)-pyridin-3-yl]-1,2-dimethyl-propyl}-[1,2,4]oxadiazol-5-yl)-pyrazol-1-yl]-N,N-dimethyl-acetamide]: the IC50 in test [1] was found to be 71 nM; in test [2], 4.8 nM.
In the same order, the values of `CC(C)[C@](C)(c1ccc(-c2cnc(N)cn2)nc1)c1noc(-c2cnn(C3COC3)c2)n1` [Example 113, 5-(5-{(R)-1,2-Dimethyl-1-[5-(1-oxetan-3-yl-1H-pyrazol-4-yl)-[1,2,4]oxadiazol-3-yl]-propyl}-pyridin-2-yl)-pyrazin-2-ylamine] are 12 nM and 4 nM.

The record behind these values is patent US8580825B2, “Oxadiazole inhibitors of leukotriene production” (Boehringer Ingelheim International GmbH, priority 2010, dated 2013).
